This data set in a line: gradient 5% acetonitrile 3 min, to 50% in 2 min, to 85% in 15 min, held 3 min, 100 µL/min. To be noted: column: Zorbax Extend-C18 2.1 x 50 mm; eluents: water / acetonitrile, 0.1% formic acid. In outline:
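Retention times come from adduct peaks that were picked computationally and then checked by hand. The standards, pure and pooled in mixtures of ~100 molecules, were run on a Zorbax Extend-C18 column (2.1 × 50 mm, 1.8 μm) at 100 μL/min with water and acetonitrile, each with 0.1% formic acid. Detection was by quadrupole time-of-flight mass spectrometry in positive and negative ionization mode, with a dead volume of 40 μL and a dwell volume of 900 μL.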
Consider `Cc1ccc(-c2ccc(N3CCCC(C(=O)N4CCCC4)C3)nn2)cc1` (stereo unspecified), for which the RP-LC retention time worked out at 647 s.

Consider `O=C(Nc1cnn(-c2ncncc2N2CCOCC2)c1)C1CCCC1`, for which the RP-LC retention time is 624 s.

As for `COc1ccc(C(=O)N2CCCC2c2nc(-c3ccc(OC)c(OC)c3)no2)cc1` (stereo unspecified), the RP-LC retention time came out at 848 s.

`Cc1ccc(Nc2c(-c3ccc(N(C)C)cc3)nc3ncccn23)cc1C` gave an RP-LC retention time of 792 s.

`O=C(Nc1ccc2c(c1)OCO2)C1CCCN(c2ccnc(-c3ccc(F)cc3)n2)C1` (stereo unspecified): the RP-LC retention time turned out to be 674 s.

The compound `CC(NC(=O)c1ccc2nc(-c3ccc(Cl)cc3)cn2c1)c1cccnc1` (stereo unspecified) returned an RP-LC retention time of 603 s.

As for `Cc1ccc(-c2cc(C(=O)N3CCN(Cc4ccc5c(c4)OCO5)CC3)c(C)[nH]2)cc1C`, the RP-LC retention time is 718 s.

`O=C(CN1C(=O)C(C(=O)N2CCCC2)Sc2ccccc21)Nc1ccc(F)c(F)c1` (stereo unspecified): the RP-LC retention time is 1040 s.

`O=C(Cc1csc(NC(=O)Nc2ccccc2)n1)NCCc1c[nH]c2ccccc12` showed an RP-LC retention time of 891 s.

`CCn1c(=O)c2ccn(CC(=O)Nc3ccc(Cl)cc3)c2n(CC)c1=O` gave an RP-LC retention time of 747 s.

Compound `Cn1ncc2c(N3CCCCC3)nc(C(=O)N3CCN(c4ccc(Cl)cc4)CC3)nc21` displayed an RP-LC retention time of 1020 s.

`CCCN1CCN(S(=O)(=O)c2cc(-c3nnc(C4CCC4)o3)co2)CC1` came in with an RP-LC retention time of 622 s.

As for `CCn1nc(-c2ccc(OC)c(S(=O)(=O)N3CCC(C(N)=O)CC3)c2)c2c(c1=O)CCCC2`, the RP-LC retention time worked out at 663 s.

On to `CCOC(=O)CCNC(=O)N1[C@H]2CC[C@@H]1c1cnc(-c3ccc(F)cc3)nc1C2`, for which the RP-LC retention time was 797 s.

As to `COc1cc(=O)n2c(c1C(=O)Nc1ccc(Br)cc1F)CCCC2`, the RP-LC retention time was found to be 777 s.

The compound `Cc1ccc(Sc2nccnc2N2CCC(C(=O)NCc3ccc(F)cc3F)CC2)cc1` yielded an RP-LC retention time of 1070 s.

Turning to `CCCNC(=O)c1ccc2nc(CCc3ccc(NC(=O)CC)cc3)[nH]c2c1`, the RP-LC retention time came out at 608 s.

Regarding `Cc1sc2ncnc(N3CCCC(C)C3)c2c1C(=O)Nc1cc(F)ccc1Cl` (stereo unspecified), the RP-LC retention time was 1450 s.

For the compound `CCc1cccc(NC(=O)Cc2nnc(-c3cnccn3)o2)c1`, the RP-LC retention time worked out at 736 s.

The compound `CNC(=O)[C@@H]1CN(C(=O)Cc2ccsc2)C[C@H]1c1n[nH]c(C)n1` yielded an RP-LC retention time of 565 s.

Consider `COc1ccc(OC)c(CNC(=O)c2cc(-c3ccccc3)cn2C)c1`, for which the RP-LC retention time was found to be 1020 s.

Consider `O=C(O)c1cn(Cc2ccccn2)nc1S(=O)(=O)N1CCc2ccccc2C1`, for which the RP-LC retention time amounted to 690 s.

Compound `Cc1nc(SCC(=O)Nc2ccc(Cl)cc2C(F)(F)F)cc(-c2ccccn2)n1` gave an RP-LC retention time of 1080 s.

As for `COC(=O)C1=CN(c2cc(OC)ccc2OC)c2ccc(F)cc2S1(=O)=O`, the RP-LC retention time was 874 s.

In turn, `CCCN(CCC)CCc1c[nH]c2ccc(C(N)=O)cc12` gave an RP-LC retention time of 640 s.

Regarding `O=C(Nc1ncn[nH]1)c1ccccc1`, the RP-LC retention time amounted to 646 s.

`CCN(CC)c1nc(C(=O)N2CCN(c3ccccn3)CC2)nc2nc(C)cc(C)c12` displayed an RP-LC retention time of 570 s.

For `CCc1ccc(NS(=O)(=O)c2cc(-c3nc(C(C)C)cs3)cs2)cc1`, the RP-LC retention time amounted to 1260 s.

`Cc1ccc(C(=O)N2CCCn3cc(-c4cccc(C#N)c4)nc32)cn1` gave an RP-LC retention time of 636 s.

The compound `O=C(c1cccc2c1CCN2C(=O)c1ccc(F)cc1)N1CCCCC1` had an RP-LC retention time of 854 s.

Compound `Cc1cnc2cc(Cl)ccc2c1SCC(=O)O` showed an RP-LC retention time of 816 s.

In turn, `COc1ccc(Cl)c2c(=O)c3c([nH]c12)CCN(CC(=O)Nc1c(C)cccc1C)C3` displayed an RP-LC retention time of 621 s.

In the case of `CCc1ccc(NC(=O)c2cn3c(n2)CCCC3)cc1`, the RP-LC retention time came out at 644 s.

`CCCN1CCN(C(=O)C(CC)n2c3ccccc3c3cnn(C)c(=O)c32)CC1` (stereo unspecified) gave an RP-LC retention time of 618 s.

`COc1cc(OC)c(NC(=O)NCC2(N3CCOCC3)CCOC2)cc1Cl` (stereo unspecified) registered an RP-LC retention time of 612 s.

For the compound `COC(=O)CN1CN(c2ccccc2)C2(CCN(Cc3cccc4ccccc34)CC2)C1=O`, the RP-LC retention time stood at 729 s.

With `Cn1cc(-c2nc(C(=O)NCc3ccc(F)c(Cl)c3)cs2)c2cccnc21`, the RP-LC retention time came to 975 s.

Consider `Cc1cc(C(=O)NCCN2CCCCCC2)c2c(=O)n(C)c(=O)n(C)c2n1`, for which the RP-LC retention time is 592 s.

The compound `Cc1cc(-c2nnc(-c3ccccc3)o2)c(C)n1CC(=O)NCc1ccccc1` yielded an RP-LC retention time of 903 s.

In turn, `COCCOCc1nc(C2CCN(S(=O)(=O)c3c(C)noc3C)CC2)no1` had an RP-LC retention time of 793 s.

For `Fc1ccccc1N1CCN(c2ncccc2-c2nc(-c3ccccc3)no2)CC1`, the RP-LC retention time was determined as 1390 s.

For `COC(=O)c1ccccc1S(=O)(=O)Nc1ccc2c(c1)CCC(=O)N2`, the RP-LC retention time amounted to 697 s.

`Cc1ccc(NC(=O)N2CCC(N3CCN(Cc4ccc(F)cc4)C(=O)C3=O)CC2)c(C)c1` showed an RP-LC retention time of 751 s.

In the case of `Cc1c(C(=O)C(=O)Nc2ccc(F)cc2)c2ccccc2n1C`, the RP-LC retention time came to 921 s.

`Cc1ccc(C)c(-c2coc(-c3ccc(NC(=O)NCc4ccco4)cc3)n2)c1` registered an RP-LC retention time of 1110 s.

As for `C=CCNC(=O)Nc1nc(CSC)cs1`, the RP-LC retention time came to 653 s.

On to `O=C(Nc1ccc2c(c1)OCCO2)N1CCC2(CC1)CC(N1CCOCC1)CCO2` (stereo unspecified), for which the RP-LC retention time was 572 s.

`Cc1cc(C)c(S(=O)(=O)N2CCC(c3cc4n(n3)CCCN(C)C4=O)CC2)cc1C` yielded an RP-LC retention time of 888 s.

`Cc1ccccc1CNC(=O)CS(=O)Cc1cnn(-c2ccccc2)c1-n1cccc1` (stereo unspecified) returned an RP-LC retention time of 875 s.

In the case of `CC(CCNC(=O)CN1C(=O)CCn2nc(-c3cn(C)c4ccccc34)cc21)N1CCCC1` (stereo unspecified), the RP-LC retention time stood at 616 s.

As to `O=C(NCc1cccc(Br)c1)C1CCCN(c2ccc(N3CCOCC3)nn2)C1` (stereo unspecified), the RP-LC retention time is 653 s.

On to `Cc1ccc(C)c(NC(=O)Cn2nc3c(Oc4ccccc4C)nccn3c2=O)c1`, for which the RP-LC retention time stood at 908 s.

`COc1cccc(Nc2c(-c3cccc(O)c3)nc3cnccn23)c1` returned an RP-LC retention time of 929 s.

With `Cc1sc(C)c(S(=O)(=O)NCc2ccccc2Cl)c1-c1cc(C(F)(F)F)on1`, the RP-LC retention time came to 653 s.

The compound `COc1cccc(NC(=O)Nc2ccc3nc(N4CCN(C)CC4)cc(C)c3c2)c1` returned an RP-LC retention time of 587 s.

Take `CN1CCn2cc(S(=O)(=O)N3CCN(c4ccccc4)CC3)cc2C1=O`: the RP-LC retention time was found to be 764 s.

As for `CCCNC(=O)Cn1c(=O)c2cnc(-c3ccccc3)nc2n(CC)c1=O`, the RP-LC retention time turned out to be 862 s.

Take `Cc1cc(C)n2nc(SCC(=O)NC3CCC(C)CC3)nc2n1` (stereo unspecified): the RP-LC retention time stood at 752 s.

Compound `CCc1cc(-c2csc(S(=O)(=O)NCc3ccc(OC(C)C)cc3)c2)on1` came in with an RP-LC retention time of 1070 s.

The compound `COc1ccc(N2CCN(C(=O)CN3C(=O)CN(C)C(=O)c4ccccc43)CC2)cc1` returned an RP-LC retention time of 624 s.

The compound `CCc1nc2cc(-c3noc(-c4cccc(OC)c4)n3)ccc2o1` registered an RP-LC retention time of 1210 s.

The compound `Cn1cc(C2=CCN(C(=O)NCc3cccc(F)c3)CC2)c2cccnc21` registered an RP-LC retention time of 791 s.

Compound `CCC(=O)N1CCc2ccccc2C1C(=O)NCc1ccc(SC)cc1` (stereo unspecified) registered an RP-LC retention time of 853 s.

`CC(=O)N1CCCC(c2nc(CCNC(=O)C3CCC3)cs2)C1` (stereo unspecified): the RP-LC retention time came out at 625 s.

Consider `CNC(=O)c1cc[nH]c1C1CCCN(C(=O)c2ccc(Br)o2)C1` (stereo unspecified), for which the RP-LC retention time amounted to 674 s.

The compound `CCCCn1c(CN2CCCC2)nc2cc(NC(=O)CC)ccc21` had an RP-LC retention time of 605 s.

The compound `O=C(NCCC1=CCCCC1)c1ccc(-c2nccnc2N2CCCC2)cc1` had an RP-LC retention time of 1030 s.

Compound `CCN1c2ccc(F)cc2C(=O)NC12CCN(C(=O)c1ccc(C)cc1)CC2` displayed an RP-LC retention time of 824 s.

Compound `Cc1cc(-c2nnc(C3CC3)o2)c(C)n1CC(=O)Nc1ccc(F)cc1` displayed an RP-LC retention time of 792 s.

Regarding `COc1ccc(NC(=O)c2cn3c(n2)CCCC3)cc1`, the RP-LC retention time was found to be 574 s.

The compound `O=C(Nc1ccc(F)c(F)c1)c1cccn1Cc1noc(-c2ccccc2)n1` came in with an RP-LC retention time of 1100 s.

`CCc1ccc(CN2CCC([C@@H]3CNC[C@H]3CO)CC2)cc1` registered an RP-LC retention time of 558 s.

With `c1ccc(-c2nc(-c3cnccn3)no2)c(OC2CCNC2)c1` (stereo unspecified), the RP-LC retention time is 615 s.

Compound `CCCn1c(C)cnc1C1CN(S(=O)(=O)Cc2ccccc2)C1` came in with an RP-LC retention time of 652 s.

Compound `CCn1cc(CCN2CCN(S(=O)(=O)c3cccs3)CC2)c2cccnc21` registered an RP-LC retention time of 962 s.

Turning to `CN1C(=O)CCc2cc(NC(=O)C3CCC3)ccc21`, the RP-LC retention time was determined as 668 s.

For `CCC(=O)N1CCC(Oc2nccnc2N2CCOCC2)C1` (stereo unspecified), the RP-LC retention time was 646 s.

In the case of `CC(C)(C)c1cc(C(=O)NC2CCCC2)nc2ccnn12`, the RP-LC retention time worked out at 1150 s.

Take `Cc1ccc(-c2noc(-c3sccc3NC(=O)c3ccnn3C)n2)cc1`: the RP-LC retention time came out at 1380 s.

In turn, `CCOc1ccc(OCCNC(=O)NC2CCCCC2)cc1` returned an RP-LC retention time of 800 s.

In turn, `Cc1cc(C)n(CC(=O)N2CCCCC2c2nc(C3CC3)no2)n1` (stereo unspecified) had an RP-LC retention time of 741 s.

The values are drawn from the METLIN SMRT retention time set (Domingo-Almenara et al. 2019).
